Source: PMC11109052, “Metabolism characterization and toxicity of N-hydap, a marine candidate drug for lung cancer therapy by LC–MS method” (Natural Products and Bioprospecting, 2024)

Experiments:
MLMs = experiment: Kinetics of N-hydap glucuronidation in MLMs; format: in vitro ADME, mouse; conditions: MLM
Experimental: In this study, the rats were executed by drawing blood from the abdominal aorta and mice were sacrificed with cervical dislocation before the liver and kidneys were excised. The liver and kidneys were removed, and washed with chilled cleansing solution (contains 8 mM KH2PO4, 5.6 mM EDTA·K2·2H2O, 1 mM DTT and 229.6 μM PMSF), homogenized in a tissue homogenate buffer with a pH of 7.4, (consisting of […], 8 mM K2HPO4, 250 mM sucrose, 1 mM EDTA·K2·2H2O and 229.6 μM PMSF). Subsequently, the homogenate was centrifuged at 10,400 rpm at 4 °C for 15 min, and the supernatant was then centrifuged at 35,000 rpm at 4 °C for 60 min. A 250 mM sucrose buffer was added to the pellet to reconstitute and the resuspension was stored at − 80 °C until use. Microsome protein concentrations were measured by Omni-Easy™ Instant BCA Protein Assay Kit.
Various microsomes including HLMs, HKMs, HIMs, RLMs, RKMs, MLMs and MKMs were involved in CYP and UGT reactions of N-hydap. […]
The substrate concentrations used for HLMs were 0.05, 0.5, 2, 2.5, 5, 10, 25, 50, and 100 μM. […] The rates of N-hydap-G by enzymes were expressed as nmol/mg/min, representing the amount of metabolites formed per minute per milligram of protein. Kinetic parameters were determined by analyzing the Eadie–Hofstee plots. […]

CYP2B6 = experiment: Western blot protein level after 7 days gavage: CYP2B6; format: in vivo; conditions: mice, p.o. 7 days; liver
Experimental: Mice were randomly divided into four groups, with eight animals in each group. The mice received oral pretreatment with N-hydap for 7 days at doses of 2, 5, and 10 mg/kg/day, which were considered as the low dose, medium dose, and high dose, respectively. Correspondingly, the control group received PBS. On the 8th day, the liver and kidneys were removed, and organs from eight mice per group were combined to prepare MLMs and MKMs using the detailed procedures above. Subsequently, we determined the activity of CYP and UGT enzymes by specific substrate metabolized with MLMs (0.5 mg/mL) and MKMs (0.2 mg/mL) in vitro. […] In the ex vivo experiments, the activity of enzymes was measured by quantifying the production of various metabolites (nM/mg protein/min). […] The measurements were performed using multiple reaction monitoring (MRM) transitions, which are specific mass spectrometry transitions used for quantification. […]
After 7 days of N-hydap gavage, the liver and kidney tissues were lysed using RIPA buffer supplemented with a 1% protease inhibitor cocktail. […] Western blot signals were detected using an ECL chemiluminescence detection agent. The relative intensity of each protein band was scanned and quantified using Image J software.

UGT1A6 = experiment: DME activity ex vivo in MLMs and MKMs: UGT1A6 (Sero-G from Sero); design: species or system mice; key to UGT1A6 Enzymatic activity: ↑: up-regulation; ↓: down-regulation; –: no change
Experimental: Mice were randomly divided into four groups, with eight animals in each group. The mice received oral pretreatment with N-hydap for 7 days at doses of 2, 5, and 10 mg/kg/day, which were considered as the low dose, medium dose, and high dose, respectively. Correspondingly, the control group received PBS. On the 8th day, the liver and kidneys were removed, and organs from eight mice per group were combined to prepare MLMs and MKMs using the detailed procedures above. Subsequently, we determined the activity of CYP and UGT enzymes by specific substrate metabolized with MLMs (0.5 mg/mL) and MKMs (0.2 mg/mL) in vitro. Specifically, the following selective substrates were used for the respective enzymes: PH (1 μM) for CYP1A2, DIC (1 μM) for CYP2C9, MP (90 μM) for CYP2C19, DM (1 μM) for CYP2D6, CZX (10 μM) for CYP2E1, Tes (1 μM) for CYP3A4, SN38 (1 μM) for UGT1A1, CACD (100 μM) for UGT1A3, Sero (20 μM) for UGT1A6, and Prop (1 μM) for UGT1A9. All substrates were dissolved in methanol or DMSO. The incubation procedure was carried out as mentioned above, and the reaction was terminated with VER (20 ng/mL) in ESI+ mode and CLP (200 ng/mL) in ESI− mode. In the ex vivo experiments, the activity of enzymes was measured by quantifying the production of various metabolites (nM/mg protein/min). The metabolites and their corresponding enzymes are as follows: APAP from PH, 4-OH-DIC from DIC, 4-OH-MP from MP, DXO from DM, 6-OH-CZX from CZX, 6-OH-Tes from Tes, SN38-G from SN38, CACD-G from CACD, Sero-G from Sero, Prop-G from Prop. The measurements were performed using multiple reaction monitoring (MRM) transitions, which are specific mass spectrometry transitions used for quantification. The optimized parameters for each metabolite, such as declustering potential and collision energy, were described in Supplementary Table 1. All experiments were conducted in triplicate, to ensure accuracy and reproducibility.

CC1CCC2C(C=CC(C)C2C(=O)c2c(O)c(C3(O)CCC(O)C4OC43)cn(O)c2=O)C1 (centres unmarked) [N-hydap, N-Hydroxyapiosporamide]
Km (MLMs): 263 µM
increase of protein levels of CYP2B6 (CYP2B6): 92%
UGT1A6 Enzymatic activity (UGT1A6; Kidney): –
UGT1A6 Enzymatic activity (UGT1A6; Liver): ↓
reduction of formation rate of Sero-G vs control (UGT1A6; liver microsomes of mice pretreated 7 days p.o.): 72%
